Positions of bridges follow the written chain, without caps; N, C: chain ends. Non-standard residues stand in square brackets, D forms with d. Residues, ends and D or L forms follow the SMILES beside them. 4Pal = N[C@@H](Cc1ccncc1)C(=O)O; Cit = NC(=O)NCCC[C@H](N)C(=O)O; Nle = CCCC[C@H](N)C(=O)O; Aib = CC(C)(N)C(=O)O
Assays:
Format in all cases: cell-based
human MC1R = molecular target: T1, human MC1R (Homo sapiens, UniProt Q01726); assay: split-luciferase cAMP sensor assay, agonist mode, hMC1R; settings: MC4R versus MC1R
T1 construct: expressed in transfected cells; host or cells: HEK-293 cells stably expressing hMC1R and the GScAMP22F cAMP sensor
Protocol: FIG. 4A-B. (A) Pharmacological properties of exemplary MC4R agonist peptides, including those with improved efficacy in the MC4R+/− mouse (CTX-1211, CTX-1227, and CTX-1228). Concentration-response agonist curves for peptides indicated at the human MC4R (red), human MC3R (blue), human MC5R (green), and human MC1R (black) were determined by a split-luciferase cAMP sensor dynamic assay in HEK-293 cells stably expressing the hMC1R, hMC3R, hMC4R, or hMC5R and the GScAMP22F cAMP sensor. Each data point represents the mean±SEM of two experiments with three replicates each per experiment. Data is normalized to the ECmax of α-MSH. (B) Same as above, for peptides representing reduced activity at the hMC1R. Inset tables indicate EC50 values for the ligand indicated for each receptor.
The assay for the determination of the cAMP response in live cells was described previously. (Yu et al., 2020, Science 368, 428-433; incorporated by reference in its entirety). Cells were seeded at a density of 20,000 cells per well using 384-well poly-D lysine-coated, clear bottom, and black-wall assay plates (Corning Inc. Corning, NJ). Cells were allowed to attach to the plates for 18 to 24 h after which growth media was removed and 20 μl of 4% D-luciferin (Promega) in CO2 independent, serum-free medium (Thermo Fisher Scientific) was added to each well. The luciferase substrate was allowed to permeate the cells for 120 min at 37° C. Intracellular cAMP levels were measured using an FDSS 7000EX Functional Drug Screening System (Hamamatsu Photonics, Hamamatsu, Japan) in the Center for Chemical Genomics at the Life Sciences Institute. This instrument allowed the in-line addition of test-peptides and receptor agonists while simultaneously acquiring the luminescence signal from live cells. Assay read steps were set as follows: baseline acquisition of 2 min, the addition of 10 μl of varying 3× concentrations of test-peptides or vehicle followed by 11 min measurement (measurement window 1), and 10 μl addition of 4× concentration of the endogenous melanocortin agonist α-MSH (Bachem, Bubendorf, Switzerland) followed by an additional 11 min response measurement (measurement window 2). The resulting final concentration of α-MSH was close to the respective receptor EC90 dose for each receptor. Intraplate concentration response curves for α-MSH and SHU-9119 (Phoenix Pharmaceuticals, Burlingame CA) were included as reference controls. A submaximal forskolin (20 μM) concentration was also included to serve as a normalization reference to account for cell number variations and differences in assay transducer efficiency between cell lines.
With this set up it was possible to evaluate the direct effect of the test-peptides on the MC3R and MC4R cell lines during measurement window 1, while the antagonist profile in the presence of EC90 α-MSH was determined on measurement window 2. For data analysis baseline luminescence (i.e. the maximum luminescence signal from the initial 0 to 2 min window) was subtracted from the maximum luminescence obtained during measurement window 1 (2 to 13 min) and measurement window 2 (13 to 24 min) to yield the test-peptide elicited responses. EC50 or IC50 potency values were determined by non-linear regression by fitting the data to a sigmoid four-parameter variable slope model using the GraphPad Prism version 8.4 software package (San Diego CA).

human MC4R = molecular target: T2, human MC4R (Homo sapiens, UniProt P32245); assay: split-luciferase cAMP sensor assay, agonist mode (measurement window 1), hMC4R; settings: agonist mode; for Emax: % maximal activation, read-out: MC4R cAMP % max activation; for EC50: HEK-293 cells stably expressing hMC4R, read-out: MC4R cAMP EC50
T2 construct: host or cells: HEK-293 cells stably expressing the GScAMP22F split-luciferase cAMP sensor and hMC4R, G418 selection
Outline: (§1)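 Live stable cell lines carrying receptor plus GloSensor cAMP22f split-luciferase, loaded with 4% D-luciferin in serum-free medium (~1% serum estimated during assay). Luminescence recorded during in-line peptide addition; direct agonist effect read in window 1, with 20 μM forskolin as normalization reference. EC50 from four-parameter sigmoid fit.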

human MC3R = molecular target: T3, human MC3R (Homo sapiens, UniProt P41968); assay: split-luciferase cAMP sensor assay, agonist mode (measurement window 1), hMC3R; settings: for Emax: % maximal activation, read-out: MC3R cAMP % max activation; for MC4R selectivity vs MC3R: MC4R versus MC3R
T3 construct: expressed in transfected cells; host or cells: HEK-293 cells stably expressing the GScAMP22F split-luciferase cAMP sensor (parent reporter line from Promega); MC3R clone generated in-house, G418 selection
Outline: as §1

T2 sequence (P32245 whole entry): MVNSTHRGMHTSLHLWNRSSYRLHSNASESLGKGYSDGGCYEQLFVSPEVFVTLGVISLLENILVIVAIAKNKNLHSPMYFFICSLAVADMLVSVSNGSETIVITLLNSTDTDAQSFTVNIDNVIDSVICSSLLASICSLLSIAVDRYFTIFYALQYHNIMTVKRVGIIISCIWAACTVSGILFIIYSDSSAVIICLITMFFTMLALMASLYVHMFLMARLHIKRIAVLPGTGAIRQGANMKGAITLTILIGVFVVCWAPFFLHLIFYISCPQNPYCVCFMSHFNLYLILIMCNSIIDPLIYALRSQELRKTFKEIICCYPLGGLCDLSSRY
T1 sequence (Q01726 whole entry): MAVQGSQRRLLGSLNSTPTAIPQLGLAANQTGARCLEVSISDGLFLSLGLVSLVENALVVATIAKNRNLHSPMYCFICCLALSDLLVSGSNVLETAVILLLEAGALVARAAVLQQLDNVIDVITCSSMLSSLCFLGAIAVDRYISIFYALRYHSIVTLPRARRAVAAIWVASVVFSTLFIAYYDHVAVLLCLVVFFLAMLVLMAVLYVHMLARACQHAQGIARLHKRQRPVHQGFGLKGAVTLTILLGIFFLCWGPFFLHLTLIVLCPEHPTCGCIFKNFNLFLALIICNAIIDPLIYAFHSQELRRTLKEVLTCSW
T3 sequence (P41968 whole entry): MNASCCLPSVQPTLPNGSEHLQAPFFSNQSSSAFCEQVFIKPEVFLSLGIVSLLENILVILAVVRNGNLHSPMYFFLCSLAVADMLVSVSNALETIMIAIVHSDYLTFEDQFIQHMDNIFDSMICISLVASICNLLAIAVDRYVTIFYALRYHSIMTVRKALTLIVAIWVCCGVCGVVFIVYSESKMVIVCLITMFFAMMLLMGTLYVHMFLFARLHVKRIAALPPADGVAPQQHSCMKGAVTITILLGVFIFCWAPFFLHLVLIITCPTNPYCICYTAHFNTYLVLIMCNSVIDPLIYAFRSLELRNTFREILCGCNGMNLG

| SMILES | MC4R selectivity vs MC1R (human MC1R) | Emax (human MC4R) | Emax (human MC3R; agonist mode) | MC4R selectivity vs MC3R (human MC3R) | EC50 (human MC4R) | EC50 (human MC3R; HEK-293 cells stably expressing hMC3R, agonist mode, read-out: MC3R cAMP EC50) |
| --- | --- | --- | --- | --- | --- | --- |
| CC(=O)N[C@@H](CCCNC(=N)N)C(=O)N[C@H]1CSSC[C@@H](C(N)=O)NC(=O)[C@H](Cc2c[nH]c3ccccc23)NC(=O)[C@H](CCCNC(=N)N)NC(=O)[C@@H](Cc2ccccc2)NC(=O)[C@H](CCCNC(N)=O)NC(=O)CNC1=O [CTX-1294, Arg-cyclo(Cys-Gly-Cit-D-Phe-Arg-Trp-Cys)] (Ac-RCG[Cit][dF]RWC-NH2; disulfide 2-8 (inferred)) | 111 | 102% | 33% | 11 | – | – |
| CC(=O)N[C@@H](CCCNC(=N)N)C(=O)N[C@H]1CSSC[C@@H](C(N)=O)NC(=O)[C@@H](Cc2c[nH]c3ccccc23)NC(=O)[C@H](CCCNC(=N)N)NC(=O)[C@@H](Cc2ccccc2)NC(=O)[C@H](CCCNC(N)=O)NC(=O)[C@@H](C)NC1=O [CTX-1286, Arg-cyclo(Cys-D-Ala-Cit-D-Phe-Arg-D-Trp-Cys)] (Ac-RC[dA][Cit][dF]R[dW]C-NH2; disulfide 2-8) | 3.4 | 91% | 24% | 2.16 | – | – |
| N=C(N)NCCC[C@@H]1NC(=O)[C@@H](Cc2ccccc2)NC(=O)[C@H](Cc2c[nH]cn2)NC(=O)CNC(=O)CSC[C@@H](C(N)=O)NC(=O)[C@H](Cc2ccccc2)NC1=O [CTX-1653, Thioether-cyclo(Gly-His-D-Phe-Arg-Phe-Cys)] ({CH2CO}-GH[dF]RFC-NH2; thioether N-6) | 0.83 | 83% | – | >8 | 1230 nM | > 10000 nM |
| CCCC[C@H](NC(=O)[C@H](CCCNC(=N)N)NC(C)=O)C(=O)N[C@H]1CSSC[C@@H](C(N)=O)NC(=O)[C@H](Cc2ccccc2)NC(=O)[C@H](CCCNC(=N)N)NC(=O)[C@@H](Cc2ccc(OC)cc2)NC(=O)[C@H](CCCNC(=N)N)NC1=O [CTX-1624, Arg-Nle-cyclo(Cys-Arg-D-Tyr(4-OMe)-Arg-Phe-Cys)] (Ac-R[Nle]CR[dY](Me)RFC-NH2; disulfide 3-8 (inferred)) | 0.15 | 83% | 66% | 0.47 | 12 nM | – |
| CC(=O)N[C@@H](CCCNC(=N)N)C(=O)N[C@H]1CSSC[C@@H](C(N)=O)NC(=O)[C@H](Cc2c[nH]c3ccccc23)NC(=O)[C@H](CCCNC(=N)N)NC(=O)[C@@H](Cc2ccccc2)NC(=O)[C@H](CCCNC(N)=O)NC(=O)[C@H](C)NC1=O [CTX-1287, Arg-cyclo(Cys-Ala-Cit-D-Phe-Arg-Trp-Cys)] (Ac-RCA[Cit][dF]RWC-NH2; disulfide 2-8 (inferred)) | 281 | 94% | 43% | 66 | – | – |
| CC(=O)N[C@H]1CSSC[C@@H](C(N)=O)NC(=O)[C@H](Cc2c[nH]c3ccccc23)NC(=O)[C@H](CCCNC(=N)N)NC(=O)[C@@H](Cc2ccccc2)NC(=O)[C@H](CCCNC(N)=O)NC(=O)CNC1=O [CTX-1630, cyclo(Cys-Gly-Cit-D-Phe-Arg-Trp-Cys)] (Ac-CG[Cit][dF]RWC-NH2; disulfide 1-7 (inferred)) | 1816 | 102% | 35% | 28 | – | – |
| CC(=O)N[C@@H](CCCNC(=N)N)C(=O)N[C@H]1CSSC[C@@H](C(N)=O)NC(=O)[C@H](Cc2ccccc2)NC(=O)[C@H](CCCNC(=N)N)NC(=O)[C@@H](Cc2ccccc2)NC(=O)[C@H](Cc2ccncc2)NC(=O)C(C)(C)NC1=O [CTX-1606, Arg-cyclo(Cys-Aib-Pal(4′)-D-Phe-Arg-Phe-Cys)] (Ac-RC[Aib][4Pal][dF]RFC-NH2; disulfide 2-8 (inferred)) | 2.99 | 92% | 7.69% | 0.62 | – | – |

— patent US20240391954A1, “MC4R AGONIST PEPTIDES” (The Regents of the University of Michigan, priority 2021, published 2024)
